Usually Ki stands for the dissociation constant of the complex between target and ligand, obtained from inhibition or displacement.

The target of this test is Recombinant Human Poly(ADP-Ribose) Polymerase (PARP), PARP-1 (Homo sapiens (Human), UniProt P09874). As to conditions: read-out: PARP-1 (Ki); Table 1; text calls the values EC50s.
Chain of Recombinant Human Poly(ADP-Ribose) Polymerase (PARP), PARP-1 (P09874 whole entry): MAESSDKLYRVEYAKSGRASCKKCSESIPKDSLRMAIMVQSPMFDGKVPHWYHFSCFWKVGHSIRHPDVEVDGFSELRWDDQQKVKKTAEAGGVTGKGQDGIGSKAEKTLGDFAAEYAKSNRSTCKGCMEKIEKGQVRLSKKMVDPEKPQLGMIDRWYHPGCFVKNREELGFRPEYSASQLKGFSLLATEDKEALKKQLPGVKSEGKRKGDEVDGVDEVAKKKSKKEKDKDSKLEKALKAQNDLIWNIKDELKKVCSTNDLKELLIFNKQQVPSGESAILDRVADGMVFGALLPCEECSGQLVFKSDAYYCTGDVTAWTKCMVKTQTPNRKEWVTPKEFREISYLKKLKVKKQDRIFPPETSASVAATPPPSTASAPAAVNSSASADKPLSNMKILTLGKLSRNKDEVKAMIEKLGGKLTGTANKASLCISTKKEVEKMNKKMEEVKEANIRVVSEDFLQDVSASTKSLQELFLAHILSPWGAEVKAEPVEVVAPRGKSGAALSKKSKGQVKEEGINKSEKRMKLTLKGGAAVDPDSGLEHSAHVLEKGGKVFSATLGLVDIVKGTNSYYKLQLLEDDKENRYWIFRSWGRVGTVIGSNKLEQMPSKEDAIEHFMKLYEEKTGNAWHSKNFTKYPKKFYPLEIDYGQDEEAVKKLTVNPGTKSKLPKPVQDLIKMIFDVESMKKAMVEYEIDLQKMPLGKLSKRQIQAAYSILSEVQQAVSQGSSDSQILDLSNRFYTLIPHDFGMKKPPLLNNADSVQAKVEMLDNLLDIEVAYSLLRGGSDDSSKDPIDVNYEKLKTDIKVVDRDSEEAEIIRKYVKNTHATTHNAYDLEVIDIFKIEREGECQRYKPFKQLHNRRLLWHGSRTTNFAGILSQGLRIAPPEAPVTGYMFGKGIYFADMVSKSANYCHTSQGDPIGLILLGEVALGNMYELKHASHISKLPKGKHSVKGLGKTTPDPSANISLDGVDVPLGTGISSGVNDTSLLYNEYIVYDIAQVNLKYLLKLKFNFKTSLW
`O=C(Nc1cccc(Cc2n[nH]c(=O)c3c2CCCC3)c1)C1=Cc2cc(Cl)ccc2OC1` [Example 220, 6-chloro-N-(3-((4-oxo-3,4,5,6,7,8-hexahydrophthalazin-1-yl)methyl)phenyl)-2H-chromene-3-carboxamide]: the inhibition constant Ki amounted to 14 nM.

Regarding `CN(C)CCC(=O)Nc1cccc(Cc2n[nH]c(=O)c3c2CCCC3)c1` [Example 221], the Ki was found to be 1540 nM.

Regarding `Cc1ccc(C(=O)Nc2cccc(Cc3n[nH]c(=O)c4c3CCCC4)c2)c(O)c1` [Example 225, 2-hydroxy-4-methyl-N-(3-((4-oxo-3,4,5,6,7,8-hexahydrophthalazin-1-yl)methyl)phenyl)benzamide], the Ki is 41 nM.

Take `CC(=O)c1ccc(C(=O)Nc2cccc(Cc3n[nH]c(=O)c4c3CCCC4)c2)cc1` [Example 226, 4-acetyl-N-(3-((4-oxo-3,4,5,6,7,8-hexahydrophthalazin-1-yl)methyl)phenyl)benzamide]: the inhibition constant (Ki) was determined as 40 nM.

In the case of `COc1cc(C(=O)Nc2cccc(Cc3n[nH]c(=O)c4c3CCCC4)c2)ccc1C` [Example 227, 3-methoxy-4-methyl-N-(3-((4-oxo-3,4,5,6,7,8-hexahydrophthalazin-1-yl)methyl)phenyl)benzamide], the inhibition constant (Ki) came to 60 nM.

`CCOc1ccc(C(=O)Nc2cccc(Cc3n[nH]c(=O)c4c3CCCC4)c2)cc1` [Example 228, 4-ethoxy-N-(3-((4-oxo-3,4,5,6,7,8-hexahydrophthalazin-1-yl)methyl)phenyl)benzamide]: the inhibition constant Ki was 98 nM.

`COc1ccc(C(=O)Nc2cccc(Cc3n[nH]c(=O)c4c3CCCC4)c2)cc1F` [Example 229, 3-fluoro-4-methoxy-N-(3-((4-oxo-3,4,5,6,7,8-hexahydrophthalazin-1-yl)methyl)phenyl)benzamide]: the Ki was determined as 49 nM.

As to `O=C(Nc1cccc(Cc2n[nH]c(=O)c3c2CCCC3)c1)c1cccc2ccccc12` [Example 230, N-(3-((4-oxo-3,4,5,6,7,8-hexahydrophthalazin-1-yl)methyl)phenyl)-1-naphthamide], the Ki stood at 96 nM.

For the molecule `O=C(Nc1cccc(Cc2n[nH]c(=O)c3c2CCCC3)c1)c1ccc2ccccc2c1` [Example 231, N-(3-((4-oxo-3,4,5,6,7,8-hexahydrophthalazin-1-yl)methyl)phenyl)-2-naphthamide], the Ki came out at 110 nM.

With `CC(C)(C)c1ccc(C(=O)Nc2cccc(Cc3n[nH]c(=O)c4c3CCCC4)c2)cc1` [Example 233, 4-tert-butyl-N-(3-((4-oxo-3,4,5,6,7,8-hexahydrophthalazin-1-yl)methyl)phenyl)benzamide], the inhibition constant Ki was determined as 158 nM.

In the case of `CC(=O)Nc1ccc(C(=O)Nc2cccc(Cc3n[nH]c(=O)c4c3CCCC4)c2)cc1` [Example 234, 4-(acetylamino)-N-(3-((4-oxo-3,4,5,6,7,8-hexahydrophthalazin-1-yl)methyl)phenyl)benzamide], the Ki amounted to 57 nM.

With `CCCOc1ccc(C(=O)Nc2cccc(Cc3n[nH]c(=O)c4c3CCCC4)c2)cc1` [Example 235, N-(3-((4-oxo-3,4,5,6,7,8-hexahydrophthalazin-1-yl)methyl)phenyl)-4-propoxybenzamide], the inhibition constant Ki came out at 198 nM.

Take `O=C(Nc1cccc(Cc2n[nH]c(=O)c3c2CCCC3)c1)c1ccc2ccccc2c1O` [Example 236, 1-hydroxy-N-(3-((4-oxo-3,4,5,6,7,8-hexahydrophthalazin-1-yl)methyl)phenyl)-2-naphthamide]: the Ki is 4 nM.

For `CSc1ccc(Cl)c(C(=O)Nc2cccc(Cc3n[nH]c(=O)c4c3CCCC4)c2)c1` [Example 237, 2-chloro-5-(methylthio)-N-(3-((4-oxo-3,4,5,6,7,8-hexahydrophthalazin-1-yl)methyl)phenyl)benzamide], the Ki worked out at 68 nM.

Turning to `CCOc1ccc(C(=O)Nc2cccc(Cc3n[nH]c(=O)c4c3CCCC4)c2)cc1OCC` [Example 238, 3,4-diethoxy-N-(3-((4-oxo-3,4,5,6,7,8-hexahydrophthalazin-1-yl)methyl)phenyl)benzamide], the inhibition constant (Ki) was 47 nM.

As to `O=C(Nc1cccc(Cc2n[nH]c(=O)c3c2CCCC3)c1)c1ccccc1Cc1ccccc1` [Example 239, 2-benzyl-N-(3-((4-oxo-3,4,5,6,7,8-hexahydrophthalazin-1-yl)methyl)phenyl)benzamide], the Ki was determined as 554 nM.

With `O=C(Nc1cccc(Cc2n[nH]c(=O)c3c2CCCC3)c1)c1ccccc1Nc1ccccc1` [Example 240, 2-anilino-N-(3-((4-oxo-3,4,5,6,7,8-hexahydrophthalazin-1-yl)methyl)phenyl)benzamide], the inhibitory constant (Ki) came out at 285 nM.

For `O=C(Nc1cccc(Cc2n[nH]c(=O)c3c2CCCC3)c1)c1ccccc1C(=O)c1ccccc1` [Example 241, 2-benzoyl-N-(3-((4-oxo-3,4,5,6,7,8-hexahydrophthalazin-1-yl)methyl)phenyl)benzamide], the Ki worked out at 1450 nM.

In the case of `O=C(Nc1cccc(Cc2n[nH]c(=O)c3c2CCCC3)c1)c1ccccc1CCc1ccccc1` [Example 242, N-(3-((4-oxo-3,4,5,6,7,8-hexahydrophthalazin-1-yl)methyl)phenyl)-2-(2-phenylethyl)benzamide], the Ki amounted to 610 nM.

Take `O=C(Nc1cccc(Cc2n[nH]c(=O)c3c2CCCC3)c1)c1cc(Br)ccc1Cl` [Example 243, 5-bromo-2-chloro-N-(3-((4-oxo-3,4,5,6,7,8-hexahydrophthalazin-1-yl)methyl)phenyl)benzamide]: the Ki stood at 92 nM.

For the molecule `Cc1ccc(C(=O)c2ccccc2C(=O)Nc2cccc(Cc3n[nH]c(=O)c4c3CCCC4)c2)cc1` [Example 244, 2-(4-methylbenzoyl)-N-(3-((4-oxo-3,4,5,6,7,8-hexahydrophthalazin-1-yl)methyl)phenyl)benzamide], the inhibition constant Ki was 2340 nM.

As for `O=C(Nc1cccc(Cc2n[nH]c(=O)c3c2CCCC3)c1)c1ccccc1I` [Example 245, 2-iodo-N-(3-((4-oxo-3,4,5,6,7,8-hexahydrophthalazin-1-yl)methyl)phenyl)benzamide], the inhibitory constant (Ki) came out at 963 nM.

Take `O=C(Nc1cccc(Cc2n[nH]c(=O)c3c2CCCC3)c1)c1cccc(I)c1` [Example 246, 3-iodo-N-(3-((4-oxo-3,4,5,6,7,8-hexahydrophthalazin-1-yl)methyl)phenyl)benzamide]: the Ki is 52 nM.

`O=C(Nc1cccc(Cc2n[nH]c(=O)c3c2CCCC3)c1)c1ccc(I)cc1` [Example 247, 4-iodo-N-(3-((4-oxo-3,4,5,6,7,8-hexahydrophthalazin-1-yl)methyl)phenyl)benzamide]: the inhibitory constant (Ki) stood at 48 nM.

With `CC(=O)Nc1cccc(-c2cc(Cc3n[nH]c(=O)c4c3CCCC4)ccc2F)c1` [Example 248], the Ki is 2 nM.

`CS(=O)(=O)c1cccc(-c2cc(Cc3n[nH]c(=O)c4c3CCCC4)ccc2F)c1` [Example 249, 4-((6-fluoro-3′-(methylsulfonyl)-1,1′-biphenyl-3-yl)methyl)-5,6,7,8-tetrahydrophthalazin-1(2H)-one]: the Ki amounted to 85 nM.

For the molecule `O=C(c1cccc(-c2cc(Cc3n[nH]c(=O)c4c3CCCC4)ccc2F)c1)N1CCCC1` [Example 250, 4-((6-fluoro-3′-(pyrrolidin-1-ylcarbonyl)-1,1′-biphenyl-3-yl)methyl)-5,6,7,8-tetrahydrophthalazin-1(2H)-one], the Ki came to 210 nM.

With `O=C(c1ccc(-c2cc(Cc3n[nH]c(=O)c4c3CCCC4)ccc2F)cc1)N1CCCC1` [Example 251, 4-((6-fluoro-4′-(pyrrolidin-1-ylcarbonyl)-1,1′-biphenyl-3-yl)methyl)-5,6,7,8-tetrahydrophthalazin-1(2H)-one], the Ki amounted to 446 nM.

(Values after patent US9283222B2 (priority 2006, dated 2016).)
